Source: US20180353457A1, “ABIETANE DITERPENOID 7-ACETOXYROYLEANONES FOR USE IN CANCER TREATMENT” (University of South Carolina, priority 2017, published 2018)

Columns and labels:
[1] = system: OVCAR-3 (ovarian cancer) cells; assay: NCI-60 five dose screen, OVCAR-3; conditions: Homo sapiens, OVCAR-3, read-out: LC50
[2] = system: NCI-H522 (non-small cell lung cancer) cells; assay: NCI-60 five dose screen, NCI-H522; conditions: Homo sapiens, NCI-H522, read-out: LC50
[3] = system: HOP-92 (non-small cell lung cancer) cells; assay: NCI-60 five dose screen, HOP-92; conditions: Homo sapiens, HOP-92, read-out: LC50
[4] = system: HCC-2996 (colon cancer) cells; assay: NCI-60 five dose screen, HCC-2996; conditions: read-out: LC50
[5] = system: DU-145 (prostate cancer) cells; assay: NCI-60 five dose screen, DU-145; conditions: Homo sapiens, DU-145, read-out: LC50
[6] = system: SF-295 (CNS cancer) cells; assay: NCI-60 five dose screen, SF-295; conditions: Homo sapiens, SF-295, read-out: LC50
[7] = system: SK-MEL-5 (melanoma) cells; assay: NCI-60 five dose screen, SK-MEL-5; conditions: Homo sapiens, SK-MEL-5, read-out: LC50
[8] = system: COLO 205 (colon cancer) cells; assay: NCI-60 five dose screen, COLO 205; conditions: Homo sapiens, COLO 205, read-out: LC50
[9] = system: RXF 393 (renal cancer) cells; assay: NCI-60 five dose screen, RXF 393; conditions: Homo sapiens, RXF 393, read-out: LC50
[10] = system: A498 (renal cancer) cells; assay: NCI-60 five dose screen, A498; conditions: Homo sapiens, A498, read-out: LC50
[11] = system: MDA-MB-468 (breast cancer) cells; assay: NCI-60 five dose screen, MDA-MB-468; conditions: Homo sapiens, MDA-MB-468, read-out: LC50
[12] = system: MDA-MB-435 (melanoma) cells; assay: NCI-60 five dose screen, MDA-MB-435; conditions: Homo sapiens, MDA-MB-435, read-out: LC50

Compound: COc1cccc2c1C(=O)c1c(O)c3c(c(O)c1C2=O)C[C@@](O)(C(=O)CO)C[C@@H]3O[C@H]1C[C@H](N)[C@H](O)[C@H](C)O1 [Doxorubicin, doxorubicin, reference compound]
- CC50 [1]: 23.4 µM
- CC50 [2]: 9.33 µM
- CC50 [3]: 20.9 µM
- CC50 [4]: 6.76 µM
- CC50 [5]: 23.4 µM
- CC50 [6]: 19.1 µM
- CC50 [7]: 1.62 µM
- CC50 [8]: 4.9 µM
- CC50 [9]: 4.79 µM
- CC50 [10]: 3.72 µM
- CC50 [11]: 2.45 µM
- CC50 [12]: 2.88 µM
